Data taken from patent US20220226268A1, “COMPOSITIONS AND METHODS FOR TREATING CENTRAL NERVOUS SYSTEM DISORDERS” (PaxMedica, Inc., priority 2019, published 2022).

Experiments:
[1] = Determination of suramin in plasma and brain tissue of mice after IP or IN administration; assay type: in vivo, male Fmr1-knockout B6.129P2-Fmr1tm1Cgr/J TG mice; conditions: male, Fmr1-knockout B6.129P2-Fmr1tm1Cgr/J, mouse, Group 1: IP injection 20 mg/kg weekly for four weeks, read-out: Average Brain Tissue to Plasma Partitioning Ratio
Experimental: For the study, male Fmr1-knockout B6.129P2-Fmr1tm1Cgr/J TG mice were purchased from Jackson Laboratories, Bar Harbor, Me. These mice were of approximately 8 weeks of age.
Mice were accommodated to the research facility for approximately a week. Body weights of all mice were recorded for health monitoring purposes.
Blood samples were collected from all mice at the end of 12 weeks of age. Brain tissue was harvested from all mice upon sacrifice 13-14 weeks of age. Standard sample preparation and analytical techniques were used to obtain the data.
The data is presented as the average plasma concentration (in both ng/ml and μM) for each animal group the and average brain tissue concentration (in both ng/g and mmol/g). Also presented is the average brain tissue to plasma partition ratio for each group.

[2] = in vivo, cited from earlier work

Cc1ccc(C(=O)Nc2ccc(S(=O)(=O)O)c3cc(S(=O)(=O)O)cc(S(=O)(=O)O)c23)cc1NC(=O)c1cccc(NC(=O)Nc2cccc(C(=O)Nc3cc(C(=O)Nc4ccc(S(=O)(=O)O)c5cc(S(=O)(=O)O)cc(S(=O)(=O)O)c45)ccc3C)c2)c1 [suramin]
Kp [1]: 0.03 | oral bioavailability ([2]; po): not orally bioavailable | half-life [2]: 41 to 78 days
